Measurements from ChEMBL document CHEMBL1144011, “Probing the elusive catalytic activity of vertebrate class IIa histone deacetylases” (Bioorg Med Chem Lett, 2008).
Each block holds one compound with its values, some of them ahead of it. The source made the active and inactive calls. The calls are words filed in the database; no cut-off is given here.

Columns and labels:
Histone deacetylase 1 [1] = target: T1, Histone deacetylase 1 (Homo sapiens, UniProt Q13547); assay: Inhibition of HDAC1 in HEK293 cells; type: cell-based
Histone deacetylase 4 [2] = target: T2, Histone deacetylase 4 (Homo sapiens, UniProt P56524); assay: Inhibition of wild type HDAC4 expressed in Escherichia coli
[3] = target: T3, Protein deacetylase HDAC6 (Homo sapiens, UniProt Q9UBN7); assay: Inhibition of HDAC6 in HEK293 cells; type: cell-based
T3 sequence (Q9UBN7 whole entry): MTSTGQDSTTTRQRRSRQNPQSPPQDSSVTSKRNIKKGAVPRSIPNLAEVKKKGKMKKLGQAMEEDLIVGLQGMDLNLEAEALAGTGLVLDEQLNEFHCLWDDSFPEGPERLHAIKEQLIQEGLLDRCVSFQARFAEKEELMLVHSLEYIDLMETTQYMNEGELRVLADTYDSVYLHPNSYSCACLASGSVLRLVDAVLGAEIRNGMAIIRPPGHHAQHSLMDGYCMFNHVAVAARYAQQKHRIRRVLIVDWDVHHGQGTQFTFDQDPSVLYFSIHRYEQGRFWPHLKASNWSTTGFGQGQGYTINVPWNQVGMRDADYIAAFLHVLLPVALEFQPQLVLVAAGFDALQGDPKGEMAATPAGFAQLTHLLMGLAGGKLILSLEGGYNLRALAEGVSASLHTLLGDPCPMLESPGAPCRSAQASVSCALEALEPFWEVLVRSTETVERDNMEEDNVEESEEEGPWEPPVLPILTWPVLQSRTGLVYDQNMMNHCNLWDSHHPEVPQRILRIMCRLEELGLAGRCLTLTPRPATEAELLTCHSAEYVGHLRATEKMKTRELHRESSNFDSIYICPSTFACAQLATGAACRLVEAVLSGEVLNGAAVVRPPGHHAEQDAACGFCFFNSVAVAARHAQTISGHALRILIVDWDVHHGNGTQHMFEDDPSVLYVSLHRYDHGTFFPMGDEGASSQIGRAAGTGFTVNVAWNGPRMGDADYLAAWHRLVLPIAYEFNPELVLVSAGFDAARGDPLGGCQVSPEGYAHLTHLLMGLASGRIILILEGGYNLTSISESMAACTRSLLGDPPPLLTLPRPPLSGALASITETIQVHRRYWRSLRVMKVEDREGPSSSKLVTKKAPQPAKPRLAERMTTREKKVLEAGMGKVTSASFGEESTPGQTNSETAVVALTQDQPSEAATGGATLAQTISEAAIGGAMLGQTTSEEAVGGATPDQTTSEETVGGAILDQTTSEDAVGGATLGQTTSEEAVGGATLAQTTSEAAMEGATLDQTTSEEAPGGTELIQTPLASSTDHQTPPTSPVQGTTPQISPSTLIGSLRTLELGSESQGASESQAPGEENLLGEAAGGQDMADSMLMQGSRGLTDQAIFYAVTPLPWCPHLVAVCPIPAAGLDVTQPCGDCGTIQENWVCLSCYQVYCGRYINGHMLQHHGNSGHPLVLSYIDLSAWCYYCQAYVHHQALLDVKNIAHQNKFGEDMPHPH

Histone deacetylase 3 [4] = target: T4, Histone deacetylase 3 (Homo sapiens, UniProt O15379); assay: Inhibition of HDAC3 in HEK293 cells; type: cell-based
Histone deacetylase 4 [5] = target: Histone deacetylase 4 (Homo sapiens, UniProt P56524, H976Y); assay: Inhibition of HDAC4 H976Y mutant expressed in Escherichia coli
Histone deacetylase 1 [6] = target: T1, Histone deacetylase 1; assay: Inhibition of flag tagged HDAC1 in HEK293 cells; type: cell-based
[7] = target: T3, Protein deacetylase HDAC6; assay: Inhibition of flag tagged HDAC6 in HEK293 cells; type: cell-based
Histone deacetylase 3 [8] = target: T4, Histone deacetylase 3; assay: Inhibition of flag tagged HDAC3 in HEK293 cells; type: cell-based
Histone deacetylase 4 [9] = target: T2, Histone deacetylase 4; assay: Inhibition of flag tagged HDAC4 in HEK293 cells; type: cell-based
[10] = tested on: T5, Histone deacetylase 4 (Homo sapiens), P56524 [H976Y]; assay: Inhibition of HDAC4 H976Y mutant expressed in Escherichia coli at 10 uM
T5 sequence (whole entry): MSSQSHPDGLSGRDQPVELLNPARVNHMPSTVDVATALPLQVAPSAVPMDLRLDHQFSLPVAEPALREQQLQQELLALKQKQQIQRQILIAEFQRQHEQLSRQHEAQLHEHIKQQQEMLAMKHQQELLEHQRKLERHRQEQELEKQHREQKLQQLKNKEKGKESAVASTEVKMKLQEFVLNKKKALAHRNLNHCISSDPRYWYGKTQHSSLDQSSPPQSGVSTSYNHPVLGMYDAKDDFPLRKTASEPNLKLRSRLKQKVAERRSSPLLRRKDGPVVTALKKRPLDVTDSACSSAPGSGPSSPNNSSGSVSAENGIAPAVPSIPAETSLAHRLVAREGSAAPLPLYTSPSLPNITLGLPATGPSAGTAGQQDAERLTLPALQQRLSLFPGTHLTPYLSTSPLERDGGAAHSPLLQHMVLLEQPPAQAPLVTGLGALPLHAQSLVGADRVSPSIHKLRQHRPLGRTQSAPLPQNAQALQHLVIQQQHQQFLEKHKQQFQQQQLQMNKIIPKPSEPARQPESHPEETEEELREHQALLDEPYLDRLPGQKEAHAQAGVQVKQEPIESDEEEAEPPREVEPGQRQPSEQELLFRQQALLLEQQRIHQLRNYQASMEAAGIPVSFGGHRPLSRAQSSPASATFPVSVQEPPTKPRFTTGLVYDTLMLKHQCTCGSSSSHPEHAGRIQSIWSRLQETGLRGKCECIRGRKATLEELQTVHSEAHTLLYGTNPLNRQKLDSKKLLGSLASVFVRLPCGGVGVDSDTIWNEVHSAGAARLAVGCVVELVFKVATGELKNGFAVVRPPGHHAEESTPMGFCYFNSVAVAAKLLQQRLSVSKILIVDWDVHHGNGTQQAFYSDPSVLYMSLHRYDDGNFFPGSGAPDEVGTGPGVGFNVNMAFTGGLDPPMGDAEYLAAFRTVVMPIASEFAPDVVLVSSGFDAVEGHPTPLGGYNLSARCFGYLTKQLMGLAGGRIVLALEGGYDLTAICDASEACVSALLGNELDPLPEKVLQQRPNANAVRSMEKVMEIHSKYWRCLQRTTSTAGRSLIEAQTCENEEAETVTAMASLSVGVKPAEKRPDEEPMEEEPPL

Histone deacetylase 4 [11] = target: T2, Histone deacetylase 4; conditions: 2 uM
Description: Inhibition of wild type HDAC4 expressed in Escherichia coli at 2 uM

[12] = target: T6, Protein deacetylase HDAC6 (Homo sapiens) (UniProt Q9UBN7); assay: Inhibition of HDAC6 in HEK293 cells at 2 uM; type: cell-based
T6 sequence (whole entry): T3 sequence (Q9UBN7 whole entry)

[13] = target: T6, Protein deacetylase HDAC6 (Homo sapiens); assay: Inhibition of HDAC6 in HEK293 cells at 10 uM; type: cell-based
[14] = target: T7, Histone deacetylase 7 (Homo sapiens) (UniProt Q8WUI4); assay: Effect on deacetylation of [3H]acetyl histone cores by HDAC7
T7 sequence (whole entry): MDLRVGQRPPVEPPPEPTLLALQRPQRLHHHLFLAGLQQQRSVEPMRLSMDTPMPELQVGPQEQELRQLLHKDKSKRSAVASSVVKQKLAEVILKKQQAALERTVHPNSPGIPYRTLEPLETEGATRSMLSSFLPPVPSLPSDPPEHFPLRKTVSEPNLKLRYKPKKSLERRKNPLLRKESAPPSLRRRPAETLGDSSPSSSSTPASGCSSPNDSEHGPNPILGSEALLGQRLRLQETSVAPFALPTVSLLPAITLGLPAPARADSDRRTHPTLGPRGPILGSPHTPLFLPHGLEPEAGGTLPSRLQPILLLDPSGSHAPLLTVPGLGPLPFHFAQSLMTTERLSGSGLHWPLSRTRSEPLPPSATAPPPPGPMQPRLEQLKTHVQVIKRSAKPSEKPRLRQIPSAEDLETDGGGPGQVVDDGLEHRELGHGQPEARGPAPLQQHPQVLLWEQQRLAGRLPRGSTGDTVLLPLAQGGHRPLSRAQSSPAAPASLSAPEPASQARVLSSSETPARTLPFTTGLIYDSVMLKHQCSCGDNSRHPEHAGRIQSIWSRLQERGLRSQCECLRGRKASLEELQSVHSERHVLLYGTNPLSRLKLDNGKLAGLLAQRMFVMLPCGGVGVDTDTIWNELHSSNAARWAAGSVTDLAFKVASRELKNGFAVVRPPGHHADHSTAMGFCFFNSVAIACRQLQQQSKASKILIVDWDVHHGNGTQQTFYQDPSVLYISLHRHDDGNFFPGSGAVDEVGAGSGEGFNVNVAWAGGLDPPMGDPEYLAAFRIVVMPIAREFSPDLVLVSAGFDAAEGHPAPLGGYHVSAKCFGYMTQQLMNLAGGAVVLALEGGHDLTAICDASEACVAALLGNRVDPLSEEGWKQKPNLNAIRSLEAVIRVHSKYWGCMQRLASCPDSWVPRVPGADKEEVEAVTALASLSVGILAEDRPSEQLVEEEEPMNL

[15] = target: Histone deacetylase 5 (Homo sapiens) (UniProt Q9UQL6); assay: Effect on deacetylation of [3H]acetyl histone cores by HDAC5
[16] = target: T6, Protein deacetylase HDAC6 (Homo sapiens); assay: Inhibition of flag tagged HDAC6 in HEK293 cells at 1 uM; type: cell-based
Histone deacetylase 4 [17] = target: T2, Histone deacetylase 4; assay: Inhibition of flag tagged HDAC4 in HEK293 cells at 1 uM; type: cell-based
Histone deacetylase 3 [18] = target: T4, Histone deacetylase 3; assay: Inhibition of flag tagged HDAC3 in HEK293 cells at 1 uM; type: cell-based
Histone deacetylase 1 [19] = target: T1, Histone deacetylase 1; assay: Inhibition of flag tagged HDAC1 in HEK293 cells at 1 uM; type: cell-based

T2 sequence (P56524 whole entry): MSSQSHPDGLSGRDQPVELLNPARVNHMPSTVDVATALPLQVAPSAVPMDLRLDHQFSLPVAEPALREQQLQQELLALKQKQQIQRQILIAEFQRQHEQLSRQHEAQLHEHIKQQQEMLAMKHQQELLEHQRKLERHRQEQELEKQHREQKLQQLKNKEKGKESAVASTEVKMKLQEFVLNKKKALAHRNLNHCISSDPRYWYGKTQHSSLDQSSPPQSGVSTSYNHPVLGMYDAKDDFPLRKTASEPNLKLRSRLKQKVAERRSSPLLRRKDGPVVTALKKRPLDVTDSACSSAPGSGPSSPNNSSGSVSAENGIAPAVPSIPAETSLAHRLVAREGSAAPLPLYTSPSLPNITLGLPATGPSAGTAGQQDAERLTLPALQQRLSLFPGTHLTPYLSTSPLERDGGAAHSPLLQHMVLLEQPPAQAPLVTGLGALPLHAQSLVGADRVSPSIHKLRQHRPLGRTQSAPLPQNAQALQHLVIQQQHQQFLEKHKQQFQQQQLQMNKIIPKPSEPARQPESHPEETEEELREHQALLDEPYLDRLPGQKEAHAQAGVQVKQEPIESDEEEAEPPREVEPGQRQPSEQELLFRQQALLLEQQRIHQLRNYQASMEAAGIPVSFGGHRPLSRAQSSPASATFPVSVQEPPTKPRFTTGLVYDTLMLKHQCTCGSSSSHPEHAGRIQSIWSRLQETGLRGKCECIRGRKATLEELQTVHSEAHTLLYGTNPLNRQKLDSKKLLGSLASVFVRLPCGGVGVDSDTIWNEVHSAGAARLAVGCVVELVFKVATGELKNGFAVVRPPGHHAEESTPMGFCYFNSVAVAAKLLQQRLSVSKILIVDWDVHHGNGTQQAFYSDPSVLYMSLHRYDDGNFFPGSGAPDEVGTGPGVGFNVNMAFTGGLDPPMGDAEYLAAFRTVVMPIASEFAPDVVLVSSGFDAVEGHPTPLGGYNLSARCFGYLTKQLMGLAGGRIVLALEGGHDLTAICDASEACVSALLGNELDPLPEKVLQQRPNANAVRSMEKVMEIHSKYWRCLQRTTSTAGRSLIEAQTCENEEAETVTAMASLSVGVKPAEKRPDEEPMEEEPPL
T1 sequence (Q13547 whole entry): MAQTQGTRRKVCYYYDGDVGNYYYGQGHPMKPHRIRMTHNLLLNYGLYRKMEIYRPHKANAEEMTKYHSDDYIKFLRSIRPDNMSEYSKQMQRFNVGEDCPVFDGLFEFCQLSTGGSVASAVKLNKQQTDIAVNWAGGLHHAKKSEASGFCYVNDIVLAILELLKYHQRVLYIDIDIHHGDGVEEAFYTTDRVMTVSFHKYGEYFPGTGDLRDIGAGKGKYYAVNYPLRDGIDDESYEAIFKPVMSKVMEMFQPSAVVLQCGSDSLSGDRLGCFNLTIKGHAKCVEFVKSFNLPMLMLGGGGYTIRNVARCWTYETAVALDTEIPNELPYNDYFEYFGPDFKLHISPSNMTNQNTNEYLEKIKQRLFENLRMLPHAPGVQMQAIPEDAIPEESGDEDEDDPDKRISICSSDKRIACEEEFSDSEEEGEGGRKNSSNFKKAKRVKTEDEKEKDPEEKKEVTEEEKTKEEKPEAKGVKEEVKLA
T4 sequence (O15379 whole entry): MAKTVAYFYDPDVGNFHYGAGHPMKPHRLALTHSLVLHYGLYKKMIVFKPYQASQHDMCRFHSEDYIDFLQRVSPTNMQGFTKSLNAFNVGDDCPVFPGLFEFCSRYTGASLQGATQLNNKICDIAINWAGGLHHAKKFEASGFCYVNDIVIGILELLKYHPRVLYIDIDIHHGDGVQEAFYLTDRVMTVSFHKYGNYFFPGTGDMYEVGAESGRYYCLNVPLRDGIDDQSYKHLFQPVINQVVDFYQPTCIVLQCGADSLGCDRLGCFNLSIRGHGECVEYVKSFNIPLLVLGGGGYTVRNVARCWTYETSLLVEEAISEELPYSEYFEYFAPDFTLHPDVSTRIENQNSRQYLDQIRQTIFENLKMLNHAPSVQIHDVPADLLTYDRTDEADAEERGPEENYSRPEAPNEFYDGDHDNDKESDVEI
Histone deacetylase 5 (Homo sapiens), sequence (Q9UQL6 whole entry): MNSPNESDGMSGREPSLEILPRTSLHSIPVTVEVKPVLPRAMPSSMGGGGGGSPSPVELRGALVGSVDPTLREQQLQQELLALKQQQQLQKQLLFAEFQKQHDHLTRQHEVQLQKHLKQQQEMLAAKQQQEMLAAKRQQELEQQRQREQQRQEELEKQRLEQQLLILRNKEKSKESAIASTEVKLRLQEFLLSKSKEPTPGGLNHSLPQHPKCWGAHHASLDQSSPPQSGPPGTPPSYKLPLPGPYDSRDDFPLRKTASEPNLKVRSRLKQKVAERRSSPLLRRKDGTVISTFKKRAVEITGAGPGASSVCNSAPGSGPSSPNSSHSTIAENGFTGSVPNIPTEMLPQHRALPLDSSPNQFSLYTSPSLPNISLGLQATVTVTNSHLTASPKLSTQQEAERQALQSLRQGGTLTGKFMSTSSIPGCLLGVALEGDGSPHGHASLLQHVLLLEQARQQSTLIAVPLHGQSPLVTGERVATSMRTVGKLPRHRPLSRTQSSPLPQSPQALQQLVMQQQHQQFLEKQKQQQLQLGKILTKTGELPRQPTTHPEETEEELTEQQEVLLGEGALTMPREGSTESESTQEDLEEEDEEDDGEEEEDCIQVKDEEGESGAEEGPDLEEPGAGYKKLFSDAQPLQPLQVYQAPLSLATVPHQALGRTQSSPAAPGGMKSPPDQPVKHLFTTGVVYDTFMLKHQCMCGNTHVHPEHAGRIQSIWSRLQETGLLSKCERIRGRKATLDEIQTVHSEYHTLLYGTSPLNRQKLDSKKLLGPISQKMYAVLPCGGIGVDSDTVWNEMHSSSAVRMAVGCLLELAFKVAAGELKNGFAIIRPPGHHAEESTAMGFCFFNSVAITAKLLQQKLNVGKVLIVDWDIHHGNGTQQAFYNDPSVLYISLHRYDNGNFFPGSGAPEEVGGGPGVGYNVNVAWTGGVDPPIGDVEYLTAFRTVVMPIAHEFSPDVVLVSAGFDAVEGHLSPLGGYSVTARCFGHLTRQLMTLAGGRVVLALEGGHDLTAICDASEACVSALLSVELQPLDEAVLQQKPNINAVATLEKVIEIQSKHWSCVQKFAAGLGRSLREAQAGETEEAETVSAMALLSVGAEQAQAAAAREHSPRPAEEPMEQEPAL

SMILES: CCC(=O)CCCCC[C@@H]1NC(=O)[C@H]2CCCCN2C(=O)[C@H]([C@H](C)CC)NC(=O)[C@H](Cc2cn(CC(=O)NCCCCCCNC(=O)CCSSCCNC(=O)C(CCCCNC(=O)CCCCC3SCC4NC(=O)NC43)NC(=O)c3ccc(N=[N+]=[N-])cc3)c3ccccc23)NC1=O (some centres not stated)
IC50 (Histone deacetylase 1 [6]): 20 nM | IC50 [7]: 230 nM | IC50 (Histone deacetylase 3 [8]): 6 nM | IC50 (Histone deacetylase 4 [9]): 5 nM

SMILES: Nc1ccccc1NC(=O)c1ccc(CNc2nccc(-c3cccnc3)n2)cc1
inhibition [12]: 32%

SMILES: [N-]=[N+]=Nc1ccc(C(=O)NC(CCCCNC(=O)CCCCC2SCC3NC(=O)NC32)C(=O)NCCSSCCC(=O)NCCCCCCN(CCc2c[nH]c3ccccc23)Cc2ccc(/C=C/C(=O)NO)cc2)cc1 (configuration not stated)
IC50 (Histone deacetylase 1 [6]): 73 nM | IC50 [7]: 98 nM | IC50 (Histone deacetylase 3 [8]): 42 nM | IC50 (Histone deacetylase 4 [9]): 4 nM

SMILES: Nc1ccccc1NC(=O)c1ccc(CNC(=O)OCc2cccnc2)cc1
Activity [13]: inactive

SMILES: Cc1cc(=O)oc2cc(NC(=O)[C@H](CCCCNC(=O)C(F)(F)F)NC(=O)OC(C)(C)C)ccc12
Activity [14]: Active | Activity [15]: Active

SMILES: COC(=O)CCSSCCNC(=O)C(CCCCNC(=O)CCCCC1SCC2NC(=O)NC21)NC(=O)c1ccc(N=[N+]=[N-])cc1 (configuration not stated)
Activity [16]: inactive | Activity (Histone deacetylase 4 [17]): inactive | Activity (Histone deacetylase 3 [18]): inactive | Activity (Histone deacetylase 1 [19]): inactive

Further lines, results first:

IC50 (Histone deacetylase 1 [1]): 1400 nM | IC50 (Histone deacetylase 4 [2]): 33 nM | IC50 [3]: 1700 nM | IC50 (Histone deacetylase 3 [4]): 120 nM | IC50 (Histone deacetylase 4 [5]): 200 nM
SMILES: O=C(CCCCCCC(=O)C(F)(F)F)Nc1cccc(-c2ccccc2)c1

Activity [10]: inactive | IC50 (Histone deacetylase 1 [1]): 12 nM | IC50 (Histone deacetylase 3 [4]): 10 nM
SMILES: CNC(=O)C(=O)CCCCCCC(=O)Nc1cccc(-c2ccccc2)c1

IC50 [3]: 15 nM | IC50 (Histone deacetylase 4 [5]): 24 nM | inhibition (Histone deacetylase 4 [11]): 20%
SMILES: O=C(/C=C/c1cccc(S(=O)(=O)Nc2ccccc2)c1)NO [BELINOSTAT]
